Tests used:
SSTR4 [1] = target: T1, SSTR4 (Homo sapiens (Human), UniProt P31391); assay: Inhibition of forskolin stimulated cAMP in cells overexpressing SSTR4; format: cell-based; settings: inhibition of forskolin stimulated cAMP in CHO-K1 cells overexpressing SSTR4; read-out: SSTR4 Activity pEC50 (converted)
Method: Inhibition of Forskolin Stimulated cAMP in Cells Overexpressing SSTR4
This cell-based assay measures the ability of compounds to inhibit forskolin stimulated cAMP in CHO-K1 cells overexpressing SSTR4. CHO-K1 cells overexpressing SSTR4 (CHO-SSTR4) are purchased from DiscoveRx (product code 95-0059C2). The CHO-SSTR4 cells are maintained in F12K media with 10% Fetal Bovine Serum (Hyclone), 1% Pen/Strep (Life Technologies), and 800 μg/mL G418 (Life Technologies). […] The next day, the culture media is removed from the cells and the cells are washed (added then removed) with Krebs Ringer Buffer (ZenBio, KRB-1000 mL). […] The cells are incubated in 10 μL compound/stimulation buffer for 30 minutes at room temperature. Cellular cAMP levels are detected with a HTRF LANCE Ultra cAMP kit (Perkin Elmer, catalog number TRF0264).
The assay is performed in accordance with the manufacturer's instructions. […] of diluted Eu—W8044 labeled streptavidin (dilution: 1:50 in cAMP Detection Buffer) is added to each well. Then 5 μL of diluted biotin cAMP (dilution: 1:150 in cAMP Detection Buffer) is added to each well. The plates are covered and allowed to incubate for 60 minutes at room temperature on a shaker. […] The pEC50 values are generated using Activity Base for Screening Data Management.

SSTR4 [2] = target: T1, SSTR4; assay: SSTR4 I-125 somatostatin competition binding assay; settings: for SSTR4 Binding pIC50: membranes from CHO-K1 cells overexpressing SSTR4
From the text: The scintillator sheets are melted to filters using a heat block.

SSTR1 = SSTR1 (Homo sapiens (Human), UniProt P30872);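 also: binding assay on CHO-K1 cell membranes overexpressing SSTR1, incubated 60 min at room temperature, bound fraction collected on filters and read by scintillation counting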
Sequence of SSTR1 (P30872 whole entry): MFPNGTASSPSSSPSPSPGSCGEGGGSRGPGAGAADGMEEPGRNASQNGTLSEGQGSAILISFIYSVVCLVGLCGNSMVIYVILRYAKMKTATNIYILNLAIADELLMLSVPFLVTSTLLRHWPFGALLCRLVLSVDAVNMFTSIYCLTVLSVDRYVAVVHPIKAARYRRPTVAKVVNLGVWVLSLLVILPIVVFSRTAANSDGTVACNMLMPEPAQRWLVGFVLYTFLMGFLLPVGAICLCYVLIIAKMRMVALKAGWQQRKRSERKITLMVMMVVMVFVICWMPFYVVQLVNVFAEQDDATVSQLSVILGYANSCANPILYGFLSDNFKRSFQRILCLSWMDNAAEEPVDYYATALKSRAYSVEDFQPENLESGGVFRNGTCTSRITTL
Method: Membranes from CHO-K1 cells overexpressing SSTR1 are purchased from Perkin Elmer (catalog number ES-520-M400UA). […] Then 10 μg of SSTR1 membranes in 50 μL assay buffer are added per well. The plate is incubated for 60 minutes at room temperature. […] The contents of the assay plate are transferred to filters with a TomTech harvester and washed 5 times with 20 mM HEPES, 100 mM NaCl. […] The scintillator sheets are melted to the filters using a heat block. The filters are then read in a MicroBeta scintillation counter. Binding Ki curves are generated using Activity Base for Screening Data Management and the results are reported as pIC50.

T1 sequence (P31391 whole entry): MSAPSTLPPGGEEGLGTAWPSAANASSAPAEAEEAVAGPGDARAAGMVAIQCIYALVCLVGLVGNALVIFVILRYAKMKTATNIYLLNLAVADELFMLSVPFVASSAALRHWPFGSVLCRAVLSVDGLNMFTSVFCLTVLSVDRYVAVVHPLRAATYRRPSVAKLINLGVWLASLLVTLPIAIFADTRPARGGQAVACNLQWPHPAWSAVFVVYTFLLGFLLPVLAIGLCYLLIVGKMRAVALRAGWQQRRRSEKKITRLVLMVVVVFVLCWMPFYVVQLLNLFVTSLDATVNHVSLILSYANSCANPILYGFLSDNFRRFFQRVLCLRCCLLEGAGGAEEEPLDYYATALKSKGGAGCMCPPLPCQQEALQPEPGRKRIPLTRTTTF

Row | Compound | EC50 (SSTR4 [1]) | IC50 (SSTR4 [2]; membranes from CHO-K1 cells overexpressing SSTR4, read-out: SSTR4 Binding pIC50 (converted)) | SSTR4 Binding pIC50 (SSTR4 [2]) | IC50 (SSTR1)
1 | CC[C@@H]1CN(C)CC[C@H]1NC(=O)C1(Oc2ccccc2Cl)CC1 (relative stereo) [Example 7, 1-(2-chlorophenoxy)-N-(trans-3-ethyl-1-methylpiperidin-4-yl)cyclopropane-1-carboxamide] | 178 nM | – | – | –
2 | Cc1ccc(CC2(C(=O)N[C@@H]3CCN(C)C[C@H]3C)CC2)cc1 (relative stereo) [Example 11, N-(trans-1,3-dimethylpiperidin-4-yl)-1-(4-methylbenzyl)cyclopropane-1-carboxamide] | 141 nM | – | – | –
3 | C[C@@H]1CN(C)CC[C@H]1NC(=O)C1(Cc2ccccc2Cl)CC1 (relative stereo) [Example 17, 1-(2-chlorobenzyl)-N-(trans-1,3-dimethylpiperidin-4-yl)cyclopropane-1-carboxamide] | 89.1 nM | – | – | –
4 | C[C@@H]1CN(C)CC[C@H]1NC(=O)C1(Cc2cccc(F)c2)CC1 (relative stereo) [Example 20, N-(trans-1,3-dimethylpiperidin-4-yl)-1-(3-fluorobenzyl)cyclopropane-1-carboxamide] | 77.6 nM | – | – | –
5 | CC[C@@H]1CN(C)CC[C@H]1NC(=O)C1(Cc2cccc(C)c2)CC1 (relative stereo) [Example 21, N-(trans-3-ethyl-1-methylpiperidin-4-yl)-1-(3-methylbenzyl)cyclopropane-1-carboxamide] | 42.7 nM | – | – | –
6 | C[C@H]1C[C@@H](NC(=O)C(F)(F)Oc2ccccc2)CCN1 (relative stereo) [Example 50, 2,2-difluoro-N-(cis-2-methylpiperidin-4-yl)-2-phenoxyacetamide] | 57.5 nM | 1320 nM | – | –
7 | Cc1cccc(CC2(C(=O)NC3CN(C)CC3c3ccccc3)CC2)c1 (centres unmarked) [Example 2, N-(1-methyl-4-phenylpyrrolidin-3-yl)-1-(3-methylbenzyl)cyclopropane-1-carboxamide] | 34.7 nM | – | – | –
8 | Cc1cccc(CC2(C(=O)NC3CN(C)CC3C)CC2)c1 (centres unmarked) [Example 6, N-(1,4-dimethylpyrrolidin-3-yl)-1-(3-methylbenzyl)cyclopropane-1-carboxamide] | 31.6 nM | – | 6.55 | 8320 nM
9 | CC1CC(NC(=O)C2(Oc3ccccc3Cl)CC2)CCN1C (centres unmarked) [Example 8, 1-(2-chlorophenoxy)-N-(1,2-dimethylpiperidin-4-yl)cyclopropane-1-carboxamide] | 182 nM | – | – | –
10 | O=C(NC1CCN2CCCC12)C1(Oc2ccccc2Cl)CC1 (centres unmarked) [Example 9, 1-(2-chlorophenoxy)-N-(hexahydro-1H-pyrrolizin-1-yl)cyclopropane-1-carboxamide] | 182 nM | – | – | –
11 | C[C@H]1CNCC[C@@H]1NC(=O)C1(Cc2ccc(F)cc2)CC1 [Example 13, 1-(4-fluorobenzyl)-N-((3S,4S)-3-methylpiperidin-4-yl)cyclopropane-1-carboxamide] | 2.75 nM | – | 7.45 | 8710 nM
12 | O=C(NC1CCNCC1)C(F)(F)Oc1ccccc1 [Example 14, 2,2-difluoro-2-phenoxy-N-(piperidin-4-yl)acetamide] | 67.6 nM | – | 6.39 | > 50100 nM
13 | C[C@H]1CNCC[C@@H]1NC(=O)C1(Cc2ccc(Cl)cc2)CC1 [Example 18, 1-(4-chlorobenzyl)-N-((3S,4S)-3-methylpiperidin-4-yl)cyclopropane-1-carboxamide] | 2 nM | – | 7.58 | 4680 nM
14 | O=C(N[C@H]1CCNC[C@@H]1F)C1(Cc2ccc(Cl)cc2)CC1 [Example 23, 1-(4-chlorobenzyl)-N-((3S,4S)-3-fluoropiperidin-4-yl)cyclopropane-1-carboxamide] | 23.4 nM | – | 7.13 | 42700 nM
15 | Cc1ccccc1CC1(C(=O)N[C@H]2CCNC[C@@H]2F)CC1 [Example 24, N-((3S,4S)-3-fluoropiperidin-4-yl)-1-(2-methylbenzyl)cyclopropane-1-carboxamide] | 19.5 nM | – | 7.23 | > 50100 nM
16 | C[C@H]1CNCC[C@@H]1NC(=O)C(F)(F)Cc1ccccc1 [Example 26, 2,2-difluoro-N-((3S,4S)-3-methylpiperidin-4-yl)-3-phenylpropanamide] | 14.8 nM | – | 7.15 | > 50100 nM
17 | O=C(N[C@H]1CCNC[C@@H]1F)C1(Cc2cccc(Cl)c2)CC1 [Example 27, 1-(3-chlorobenzyl)-N-((3S,4S)-3-fluoropiperidin-4-yl)cyclopropane-1-carboxamide] | 10.2 nM | – | 7.25 | > 50100 nM
18 | CN1CCC(NC(=O)C(F)(F)Oc2ccccc2)CC1 [Example 28, 2,2-difluoro-N-(1-methylpiperidin-4-yl)-2-phenoxyacetamide] | 195 nM | – | – | –
19 | N#Cc1ccccc1OC(F)(F)C(=O)NC1CCNCC1 [Example 32, 2-(2-cyanophenoxy)-2,2-difluoro-N-(piperidin-4-yl)acetamide] | 50.1 nM | – | 5.49 | > 50100 nM
20 | C[C@H]1CNCC[C@@H]1NC(=O)C(F)(F)Oc1ccccc1C#N [Example 33, 2-(2-cyanophenoxy)-2,2-difluoro-N-((3S,4S)-3-methylpiperidin-4-yl)acetamide] | 16.6 nM | – | 6.79 | > 50100 nM
21 | Cc1ccccc1CC1(C(=O)N[C@H]2CCN(C)C[C@@H]2C)CC1 [Example 38, N-((3S,4S)-1,3-dimethylpiperidin-4-yl)-1-(2-methylbenzyl)cyclopropane-1-carboxamide] | 14.1 nM | – | – | –
22 | CN1CC[C@H](NC(=O)C2(Cc3ccc(Cl)cc3)CC2)[C@@H](F)C1 [Example 39, 1-(4-chlorobenzyl)-N-((3S,4S)-3-fluoro-1-methylpiperidin-4-yl)cyclopropane-1-carboxamide] | 102 nM | – | – | –
23 | C[C@H]1CN(C)CC[C@@H]1NC(=O)C(F)(F)Oc1ccccc1 [Example 40, N-((3S,4S)-1,3-dimethylpiperidin-4-yl)-2,2-difluoro-2-phenoxyacetamide] | 117 nM | – | – | –
24 | O=C(N[C@H]1CCNC[C@@H]1F)C1(Cc2cccc(F)c2)CC1 [Example 44, 1-(3-fluorobenzyl)-N-((3S,4S)-3-fluoropiperidin-4-yl)cyclopropane-1-carboxamide] | 20.4 nM | – | – | –
25 | C[C@@H]1C[C@@H](NC(=O)C(F)(F)Oc2ccccc2)CCN1 [Example 52, 2,2-difluoro-N-((2R,4S)-2-methylpiperidin-4-yl)-2-phenoxyacetamide] | 170 nM | – | – | –
26 | O=C(N[C@H]1CCNC[C@@H]1F)C1(Oc2cccc(Cl)c2)CC1 [Example 59, 1-(3-chlorophenoxy)-N-((3S,4S)-3-fluoropiperidin-4-yl)cyclopropane-1-carboxamide] | 58.9 nM | – | – | –
27 | O=C(N[C@H]1CCNC[C@@H]1F)C1(Oc2ccccc2C2CC2)CC1 [Example 60, 1-(2-cyclopropylphenoxy)-N-((3S,4S)-3-fluoropiperidin-4-yl)cyclopropane-1-carboxamide] | 174 nM | – | – | –
28 | CC(Oc1cccc(Cl)c1Cl)C(=O)N[C@H]1CCNC[C@@H]1F (stereo partly drawn) [Example 61, 2-(2,3-dichlorophenoxy)-N-((3S,4S)-3-fluoropiperidin-4-yl)propanamide] | 123 nM | – | – | –
29 | CC(Oc1ccccc1Cl)C(=O)N[C@@H]1CCN(C)[C@H](C)C1 (stereo partly drawn) [Example 67, 2-(2-chlorophenoxy)-N-((2R,4R)-1,2-dimethylpiperidin-4-yl)propanamide] | 132 nM | – | – | –

Source: patent publication US20250188037A1, “N-(PYRROLIDIN-3-YL OR PIPERIDIN-4-YL)ACETAMIDE DERIVATIVES” (Takeda Pharmaceutical Company Limited, priority 2022, published 2025)
